How the values were obtained:
[1] = test system: Vero 76 cells
[2] = biological target: ABL2 (Homo sapiens, UniProt P42684); assay: Kinase inhibition assay (HotSpot); format: biochemical; conditions: 10 μM ATP; read-out: Compound IC50, ABL2
Source text: (§1) In vitro profiling of lipid and tyrosine kinases was accomplished using the “HotSpot” assay platform.

[3] = biological target: T1, GAK (Homo sapiens, UniProt O14976); assay: Kinase inhibition assay (HotSpot); format: biochemical; conditions: 10 μM ATP; read-out: Compound IC50, GAK
T1 sequence (O14976 1-1311): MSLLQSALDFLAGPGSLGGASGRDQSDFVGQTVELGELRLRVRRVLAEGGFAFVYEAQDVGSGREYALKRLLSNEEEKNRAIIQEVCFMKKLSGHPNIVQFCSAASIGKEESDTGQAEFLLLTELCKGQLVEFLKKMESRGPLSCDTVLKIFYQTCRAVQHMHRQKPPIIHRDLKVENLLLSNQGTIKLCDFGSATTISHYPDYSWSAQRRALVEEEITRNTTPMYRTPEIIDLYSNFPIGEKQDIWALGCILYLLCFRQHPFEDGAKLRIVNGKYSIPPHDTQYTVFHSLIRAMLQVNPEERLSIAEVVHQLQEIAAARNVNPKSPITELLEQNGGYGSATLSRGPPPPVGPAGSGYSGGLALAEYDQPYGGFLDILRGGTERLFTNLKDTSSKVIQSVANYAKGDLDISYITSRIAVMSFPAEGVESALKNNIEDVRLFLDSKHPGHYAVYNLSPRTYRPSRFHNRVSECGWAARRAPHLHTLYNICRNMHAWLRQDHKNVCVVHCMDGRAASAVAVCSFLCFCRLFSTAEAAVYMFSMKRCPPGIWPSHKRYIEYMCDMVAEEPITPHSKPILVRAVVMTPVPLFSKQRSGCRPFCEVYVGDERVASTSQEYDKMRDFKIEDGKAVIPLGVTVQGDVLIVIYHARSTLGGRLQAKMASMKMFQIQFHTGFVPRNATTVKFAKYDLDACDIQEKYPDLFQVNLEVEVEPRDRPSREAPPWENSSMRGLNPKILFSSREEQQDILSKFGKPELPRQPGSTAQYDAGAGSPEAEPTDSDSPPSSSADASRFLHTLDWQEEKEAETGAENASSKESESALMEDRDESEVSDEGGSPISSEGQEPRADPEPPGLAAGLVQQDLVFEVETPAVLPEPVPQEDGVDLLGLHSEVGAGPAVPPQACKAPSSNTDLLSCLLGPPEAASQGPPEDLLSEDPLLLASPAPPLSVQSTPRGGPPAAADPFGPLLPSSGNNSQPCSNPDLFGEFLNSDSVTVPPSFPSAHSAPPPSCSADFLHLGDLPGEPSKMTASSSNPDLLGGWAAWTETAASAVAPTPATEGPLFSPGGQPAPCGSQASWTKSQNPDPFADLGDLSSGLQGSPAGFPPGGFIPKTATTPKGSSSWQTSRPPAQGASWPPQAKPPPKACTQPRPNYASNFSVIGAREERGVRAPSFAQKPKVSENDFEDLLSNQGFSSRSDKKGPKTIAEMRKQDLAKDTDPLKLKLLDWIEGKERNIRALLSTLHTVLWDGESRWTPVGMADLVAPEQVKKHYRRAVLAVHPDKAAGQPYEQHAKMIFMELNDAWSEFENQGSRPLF
Source text: as §1

[4] = biological target: CSNK2A1 (Homo sapiens, UniProt P68400); assay: Kinase inhibition assay (HotSpot); format: biochemical; conditions: 10 μM ATP; read-out: Compound IC50, CSNK2A1
Sequence of CSNK2A1 (P68400 whole entry): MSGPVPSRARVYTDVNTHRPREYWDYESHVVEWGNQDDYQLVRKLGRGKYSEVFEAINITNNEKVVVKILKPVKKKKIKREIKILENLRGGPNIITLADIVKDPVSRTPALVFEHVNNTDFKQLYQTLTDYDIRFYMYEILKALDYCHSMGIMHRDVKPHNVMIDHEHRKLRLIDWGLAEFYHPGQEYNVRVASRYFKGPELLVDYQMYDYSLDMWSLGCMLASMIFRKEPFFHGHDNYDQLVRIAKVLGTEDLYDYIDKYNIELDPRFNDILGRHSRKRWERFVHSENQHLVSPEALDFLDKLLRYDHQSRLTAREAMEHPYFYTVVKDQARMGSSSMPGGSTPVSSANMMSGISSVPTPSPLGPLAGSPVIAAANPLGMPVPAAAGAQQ
Source text: as §1

[5] = biological target: BIKE (Homo sapiens, UniProt Q9NSY1); assay: Kinase inhibition assay (HotSpot); format: biochemical; conditions: 10 μM ATP; read-out: Compound IC50, BIKE
Sequence of BIKE (Q9NSY1 whole entry): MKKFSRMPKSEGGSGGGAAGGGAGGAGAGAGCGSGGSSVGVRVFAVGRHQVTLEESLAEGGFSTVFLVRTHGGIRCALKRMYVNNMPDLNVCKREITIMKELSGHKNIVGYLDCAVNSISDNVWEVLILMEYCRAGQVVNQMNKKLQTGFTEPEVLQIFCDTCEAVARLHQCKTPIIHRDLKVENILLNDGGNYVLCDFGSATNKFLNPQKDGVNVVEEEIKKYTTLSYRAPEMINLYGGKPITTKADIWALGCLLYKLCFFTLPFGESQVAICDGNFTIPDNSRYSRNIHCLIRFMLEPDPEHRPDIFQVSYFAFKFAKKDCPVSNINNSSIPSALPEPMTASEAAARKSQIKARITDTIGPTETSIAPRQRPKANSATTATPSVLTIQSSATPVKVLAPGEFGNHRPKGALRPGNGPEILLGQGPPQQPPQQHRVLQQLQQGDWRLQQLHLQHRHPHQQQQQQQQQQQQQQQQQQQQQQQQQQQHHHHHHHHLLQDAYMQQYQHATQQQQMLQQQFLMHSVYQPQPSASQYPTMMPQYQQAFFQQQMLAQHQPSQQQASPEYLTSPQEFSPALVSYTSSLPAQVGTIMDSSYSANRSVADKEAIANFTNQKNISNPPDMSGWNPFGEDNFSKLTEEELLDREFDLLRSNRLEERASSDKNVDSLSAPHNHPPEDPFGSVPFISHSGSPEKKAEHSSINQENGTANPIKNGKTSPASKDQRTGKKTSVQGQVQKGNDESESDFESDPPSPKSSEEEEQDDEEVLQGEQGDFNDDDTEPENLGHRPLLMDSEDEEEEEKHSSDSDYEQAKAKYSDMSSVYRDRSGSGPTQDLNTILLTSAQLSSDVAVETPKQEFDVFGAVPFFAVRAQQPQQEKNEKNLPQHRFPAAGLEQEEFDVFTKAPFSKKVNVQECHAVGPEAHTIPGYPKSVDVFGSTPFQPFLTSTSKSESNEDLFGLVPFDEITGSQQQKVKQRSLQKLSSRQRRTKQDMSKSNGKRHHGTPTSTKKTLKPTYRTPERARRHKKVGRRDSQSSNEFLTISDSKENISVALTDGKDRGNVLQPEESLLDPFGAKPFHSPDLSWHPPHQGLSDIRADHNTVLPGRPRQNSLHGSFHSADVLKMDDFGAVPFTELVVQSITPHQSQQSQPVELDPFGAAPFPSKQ
Source text: as §1

[6] = biological target: PI3Kb (Homo sapiens, UniProt P42338); assay: Kinase inhibition assay (HotSpot); format: biochemical; conditions: 10 μM ATP; read-out: Compound IC50, PI3Kb
Source text: as §1

[7] = biological target: AAK1 (Homo sapiens, UniProt Q2M2I8); assay: Kinase inhibition assay (HotSpot); format: biochemical; conditions: 10 μM ATP; read-out: Compound IC50, AAK1
Sequence of AAK1 (Q2M2I8 whole entry): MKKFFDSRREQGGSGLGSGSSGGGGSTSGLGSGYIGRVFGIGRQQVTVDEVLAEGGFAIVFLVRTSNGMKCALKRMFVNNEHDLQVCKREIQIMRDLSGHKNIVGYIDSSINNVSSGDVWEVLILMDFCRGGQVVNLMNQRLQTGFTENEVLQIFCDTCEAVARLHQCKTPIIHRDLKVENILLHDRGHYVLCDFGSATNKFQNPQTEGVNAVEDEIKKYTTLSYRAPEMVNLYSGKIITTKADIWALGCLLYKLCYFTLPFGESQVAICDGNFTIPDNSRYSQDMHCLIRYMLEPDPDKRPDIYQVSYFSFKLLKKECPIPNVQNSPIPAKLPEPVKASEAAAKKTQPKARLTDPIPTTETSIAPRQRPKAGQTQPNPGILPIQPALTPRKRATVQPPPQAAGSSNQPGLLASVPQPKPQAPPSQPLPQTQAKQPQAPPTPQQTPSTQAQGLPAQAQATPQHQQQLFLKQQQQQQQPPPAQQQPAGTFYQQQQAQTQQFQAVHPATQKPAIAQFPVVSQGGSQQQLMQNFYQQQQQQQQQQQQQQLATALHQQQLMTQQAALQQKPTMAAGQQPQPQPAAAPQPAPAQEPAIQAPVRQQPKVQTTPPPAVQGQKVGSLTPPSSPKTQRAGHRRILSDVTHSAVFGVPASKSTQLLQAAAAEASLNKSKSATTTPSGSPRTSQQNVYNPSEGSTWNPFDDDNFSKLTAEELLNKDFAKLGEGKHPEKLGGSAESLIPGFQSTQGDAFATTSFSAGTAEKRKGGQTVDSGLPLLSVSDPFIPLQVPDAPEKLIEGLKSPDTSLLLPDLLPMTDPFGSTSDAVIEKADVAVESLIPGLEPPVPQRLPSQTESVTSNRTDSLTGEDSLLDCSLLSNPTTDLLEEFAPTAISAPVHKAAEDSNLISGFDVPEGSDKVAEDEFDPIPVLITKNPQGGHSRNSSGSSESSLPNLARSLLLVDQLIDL
Source text: as §1

[8] = biological target: MNK2 (Homo sapiens, UniProt Q9HBH9); assay: Kinase inhibition assay (HotSpot); format: biochemical; conditions: 10 μM ATP; read-out: Compound IC50, MNK2
Sequence of MNK2 (Q9HBH9 whole entry): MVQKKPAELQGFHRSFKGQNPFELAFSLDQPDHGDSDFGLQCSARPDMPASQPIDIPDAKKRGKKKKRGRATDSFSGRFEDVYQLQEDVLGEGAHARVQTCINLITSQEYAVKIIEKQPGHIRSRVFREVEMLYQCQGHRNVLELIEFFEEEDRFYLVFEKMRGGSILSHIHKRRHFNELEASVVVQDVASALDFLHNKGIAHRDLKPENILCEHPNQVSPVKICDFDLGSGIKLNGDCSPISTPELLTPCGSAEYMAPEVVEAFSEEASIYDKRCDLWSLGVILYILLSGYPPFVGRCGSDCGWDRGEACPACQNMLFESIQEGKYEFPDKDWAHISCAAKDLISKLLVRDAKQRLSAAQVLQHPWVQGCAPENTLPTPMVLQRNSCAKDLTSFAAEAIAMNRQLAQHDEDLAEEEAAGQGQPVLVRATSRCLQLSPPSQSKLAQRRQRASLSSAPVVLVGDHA
Source text: as §1

[9] = biological target: CSNK2A2 (Homo sapiens, UniProt P19784); assay: Kinase inhibition assay (HotSpot); format: biochemical; conditions: 10 μM ATP; read-out: Compound IC50, CSNK2A2
Sequence of CSNK2A2 (P19784 whole entry): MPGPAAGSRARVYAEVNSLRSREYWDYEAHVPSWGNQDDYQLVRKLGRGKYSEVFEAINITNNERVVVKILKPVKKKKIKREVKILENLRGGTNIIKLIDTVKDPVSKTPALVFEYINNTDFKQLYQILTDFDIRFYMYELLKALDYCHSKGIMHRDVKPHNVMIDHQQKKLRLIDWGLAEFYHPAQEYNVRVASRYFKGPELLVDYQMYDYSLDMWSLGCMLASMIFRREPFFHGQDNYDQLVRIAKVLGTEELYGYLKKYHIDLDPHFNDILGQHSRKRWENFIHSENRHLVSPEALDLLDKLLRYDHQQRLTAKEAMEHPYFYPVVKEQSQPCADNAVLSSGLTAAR
Source text: as §1

[10] = test system: HCoV-OC43 (VR-1558); assay: Anti coronavirus activity: viral CPE inhibition in Vero 76 cells (microscopy, neutral red); format: cell-based; conditions: hCoV-OC43 (beta)
[11] = test system: cell culture-derived HCV (HCVcc); format: cell-based, Hepatitis C virus

Sequence of ABL2 (P42684 whole entry): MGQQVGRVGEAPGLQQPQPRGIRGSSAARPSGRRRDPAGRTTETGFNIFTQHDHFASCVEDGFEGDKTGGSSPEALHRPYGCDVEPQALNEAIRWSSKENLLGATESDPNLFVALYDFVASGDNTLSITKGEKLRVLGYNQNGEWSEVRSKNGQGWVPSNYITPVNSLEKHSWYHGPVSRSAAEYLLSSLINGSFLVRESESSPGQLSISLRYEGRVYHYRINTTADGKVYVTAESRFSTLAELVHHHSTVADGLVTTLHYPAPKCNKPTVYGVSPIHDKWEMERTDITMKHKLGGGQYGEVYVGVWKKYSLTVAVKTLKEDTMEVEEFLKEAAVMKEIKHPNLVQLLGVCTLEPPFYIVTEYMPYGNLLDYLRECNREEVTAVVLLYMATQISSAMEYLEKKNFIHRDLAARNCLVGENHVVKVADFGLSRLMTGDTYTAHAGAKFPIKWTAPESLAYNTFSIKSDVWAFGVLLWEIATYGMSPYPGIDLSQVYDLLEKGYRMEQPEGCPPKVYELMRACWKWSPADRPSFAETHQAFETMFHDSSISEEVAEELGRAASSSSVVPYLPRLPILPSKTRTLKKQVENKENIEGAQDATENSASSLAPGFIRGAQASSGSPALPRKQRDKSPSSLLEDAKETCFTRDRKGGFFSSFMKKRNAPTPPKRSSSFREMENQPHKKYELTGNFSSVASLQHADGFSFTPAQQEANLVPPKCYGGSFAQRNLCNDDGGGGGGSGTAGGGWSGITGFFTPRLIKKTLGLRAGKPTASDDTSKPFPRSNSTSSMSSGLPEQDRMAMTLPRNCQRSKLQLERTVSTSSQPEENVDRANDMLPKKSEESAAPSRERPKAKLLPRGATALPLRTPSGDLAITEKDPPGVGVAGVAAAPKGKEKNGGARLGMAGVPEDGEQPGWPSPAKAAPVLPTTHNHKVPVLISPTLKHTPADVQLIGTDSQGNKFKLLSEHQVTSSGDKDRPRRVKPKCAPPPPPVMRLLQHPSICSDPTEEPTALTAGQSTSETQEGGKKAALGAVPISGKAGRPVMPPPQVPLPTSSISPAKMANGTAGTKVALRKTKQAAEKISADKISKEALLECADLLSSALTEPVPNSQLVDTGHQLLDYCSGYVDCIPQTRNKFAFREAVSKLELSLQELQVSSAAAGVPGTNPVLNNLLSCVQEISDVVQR

Compound | CC50 [1] | IC50 [2] | IC50 [3] | IC50 [4] | IC50 [5] | IC50 [6] | IC50 [7] | IC50 [8] | IC50 [9] | EC50 [10] | SI (CC50/EC50) [10] | EC50 [11]
COc1cc(-c2cc(=O)c3c(O)cc(O)c(CC=C(C)C)c3o2)ccc1O [FBL-03G] | 2900 nM | 274 nM | 8 nM | 20 nM | 258 nM | 136 nM | 4 nM | 549 nM | 4 nM | 420 nM | 6.9 | 
Human interferon alpha-2b [rIFNa-2b] |  |  |  |  |  |  |  |  |  |  |  | 0.63 IU/mL
